According to patent US11485734B2, “Beta-carbolines as positive allosteric modulators of the human serotonin receptor 2C (5-HT2C)” (Northwestern University, priority 2018, dated 2022):
“Also recorded” adds a separate entry of the source.

Key:
[1] = biological target: T1, human serotonin receptor 2C (5-HT2c) (Homo sapiens, UniProt P28335); assay: 2C agonist activity of selected compounds; format: cell-based
T1 sequence (P28335 33-458): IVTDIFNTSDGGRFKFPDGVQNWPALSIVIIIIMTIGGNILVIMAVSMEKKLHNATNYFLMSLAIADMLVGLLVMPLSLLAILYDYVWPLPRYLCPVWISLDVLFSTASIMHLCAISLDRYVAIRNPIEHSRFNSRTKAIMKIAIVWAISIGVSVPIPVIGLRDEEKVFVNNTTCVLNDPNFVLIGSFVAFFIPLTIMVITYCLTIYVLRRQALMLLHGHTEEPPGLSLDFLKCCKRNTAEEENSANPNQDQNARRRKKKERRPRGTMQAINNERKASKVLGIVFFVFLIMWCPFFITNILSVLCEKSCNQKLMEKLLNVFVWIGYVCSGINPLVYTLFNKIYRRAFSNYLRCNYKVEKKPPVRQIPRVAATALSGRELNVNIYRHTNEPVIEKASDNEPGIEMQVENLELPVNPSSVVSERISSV

[2] = biological target: T1, human serotonin receptor 2C (5-HT2c); assay: 2C antagonist activity of selected compounds; format: cell-based
5-HT2a receptor = 5-HT2a receptor (Homo sapiens, UniProt P28223); assay: 2A agonist activity of selected compounds; format: cell-based
Chain of 5-HT2a receptor (P28223 whole entry): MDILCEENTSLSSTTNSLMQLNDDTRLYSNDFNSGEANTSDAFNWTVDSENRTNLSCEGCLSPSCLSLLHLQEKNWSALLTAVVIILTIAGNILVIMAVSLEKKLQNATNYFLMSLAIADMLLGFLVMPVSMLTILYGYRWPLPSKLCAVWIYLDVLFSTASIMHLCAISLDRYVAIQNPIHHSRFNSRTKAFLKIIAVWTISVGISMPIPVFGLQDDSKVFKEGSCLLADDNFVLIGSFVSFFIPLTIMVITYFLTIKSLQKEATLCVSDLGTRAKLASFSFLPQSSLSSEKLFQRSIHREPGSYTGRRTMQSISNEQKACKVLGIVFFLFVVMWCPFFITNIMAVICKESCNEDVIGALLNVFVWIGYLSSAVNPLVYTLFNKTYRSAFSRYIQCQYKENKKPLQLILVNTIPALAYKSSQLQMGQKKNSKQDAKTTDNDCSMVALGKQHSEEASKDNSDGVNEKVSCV

mice [3] = assay: Amphetamine-induced increase in locomotor activity (LMA); format: in vivo; settings: AJC-61 2 mg/kg, amphetamine 2.5 mg/kg, eight 15 minute intervals
Method: FIG. 1. […] The effect of AJC-61 (2 mg/kg) on amphetamine-induced (2.5 mg/kg) increase in locomotor activity in mice.
(§1) The ability of a test drug to block the increase in Locomotor Activity (LMA) produced by amphetamine or the glutamate receptor […], phencyclidine (PCP), has a high predictive value for the antipsychotic efficacy of the test drug for treating schizophrenia. […] As such, we tested the effect of AJC-61 on reducing LMA in mice that had been treated with amphetamine or PCP to increase LMA activity.

mice [4] = assay: PCP-induced increase in locomotor activity (LMA); format: in vivo; settings: AJC-61 2 mg/kg, PCP 10 mg/kg, eight 15 minute intervals
Method: FIG. 2. […] The effect of AJC-61 (2 mg/kg) on PCP-induced (10 mg/kg) increase in locomotor activity in mice.
as §1

male C57BL/6J mice = assay: Novel Object Recognition in PCP-treated mice; format: in vivo; settings: AJC-61 2 mg/kg, PCP 10 mg/kg
Method: FIG. 3. Novel Object Recognition: Discrimination index (DI) for male C57BL/6J mice treated with Vehicle, PCP (10 mg/kg), and PCP+AJC-61 (2 mg/kg). Data are shown as mean±S.E.M. of exploration time (s) n=10 mice per group.
The Novel Object Recognition test in rodents is considered a valid model of spatial memory in man. […] Normal mice remember for ˜24 hours. The time to loss of the memory in aged mice can be as low as zero to less than 8 hours. As such, we tested the effect of AJC-61 on reducing the DI in mice that had been treated with PCP to reduce the DI.

mice [5] = assay: Social Interaction in PCP-treated mice; format: in vivo; settings: AJC-61 2 mg/kg; PCP 10 mg/kg i.p. 7 days b.i.d.; 10-minute paradigm
Method: FIG. 4. Social Interaction: Effect of Vehicle, PCP (10 mg/kg: i.p., 7 days: b.i.d.), and PCP+AJC-61 (2 mg/kg), on social behaviors (sniffling, following, and avoiding) and interaction with inanimate object (object exploration), in a 10-minute social interaction (SI) paradigm. Data were analyzed by one-way ANOVA comparing the effect of drug treatment on each behavior and are shown as mean±S.E.M. of time (s); n=10 pairs of mice per group.
A healthy mouse will vigorously explore a newly introduce mouse and retain the memory for that mouse for up to 24 hours. The loss of interest in exploring a novel mouse is considered a sign of negative symptoms.
PCP-treatment produces a deficit in social interaction which models negative symptoms in schizophrenia. These include lack of motivation, loss of interest in activities, diminished capacity for pleasure and spontaneous activity. We tested the effect of AJC-61 on Social Interaction in mice that had been treated with PCP, including a Social Behaviors that include sniffing, following, and avoiding and Object Exploration via interaction with an inanimate object.

mice [6] = assay: Porsolt Forced Swim Test (FST) in PCP-treated mice; format: in vivo; settings: AJC-61 2 mg/kg, PCP 10 mg/kg i.p. 7 days b.i.d., 6-min FST
Method: FIG. 5. Porsolt Forced Swim Test (FST). Effect of Vehicle, PCP (10 mg/kg; i.p., 7 days; b.i.d.), and PCP+AJC-61 (2 mg/kg), in a 6-min Porsolt Forced Swim Test (FST).
The Porsolt Forced Swim Test (FST) is a gold standard test for antidepressant action. In the FST, normal mice become immobile after being required to swim in a tank and begin to float instead of struggling to get out of the water. […] As such, we tested whether AJC-61 could increase the swim time in a FST.

mice [7] = assay: Marble Burying Task (MBT) in PCP-treated mice; format: in vivo; settings: AJC-61 2 mg/kg; PCP 10 mg/kg i.p. 7 days b.i.d.; 30-minute MBT; listed as AJC-16
Method: FIG. 6. Marble Burying Task (MBT): Effect of Vehicle, PCP (10 mg/kg; i.p., 7 days; b.i.d.), and PCP+AJC-61 (2 mg/kg) in a 30-minute Marble Burying Task (MBT) paradigm.
(§2) Marble Burying (MB) and extent of shredding a standard type of rodent bedding (i.e., Nestlet Shredding) are both proven methods for assessing drug efficacy to treat obsessive-compulsive disorder and Tourette's syndrome. As such, we tested the effect on AJC-61 on Marble Burying and Nestlet Shredding.

mice [8] = assay: Nestlet Shredding (NS) in PCP-treated mice; format: in vivo; settings: AJC-61 2 mg/kg; PCP 10 mg/kg i.p. 7 days b.i.d.; 30-minute NS; listed as AJC-16
Method: FIG. 7. Nestlet Shredding (NS): Effect of Vehicle, PCP (10 mg/kg; i.p., 7 days; b.i.d.), and PCP+AJC-61 (2 mg/kg) in a 30-minute Nestlet Shredding (NS) paradigm.
as §2

22-month old mice = assay: Novel Object Recognition in aged mice; format: in vivo; settings: AJC-61 2 mg/kg
Method: FIG. 8. Novel Object Recognition: Effect on discrimination index (DI) of Vehicle and AJC-61 (2 mg/kg) on 2.5 month old mice and 22-month old mice Data are shown as mean±S.E.M. of exploration time (s): n=14 pairs of mice per group.
Aged mice show a decline in memory function beginning around 13-15 month of age. Drugs which enhance memory can be assessed using the Novel Object Recognition test and determination of the Discrimination Index (DI) as discussed above. As such, we tested whether AJC-61 could improve the DI for aged mice (i.e., 22-month old mice) versus young mice (i.e., 2.5 month old mice).

Oc1ccc2[nH]c3c(-c4cncnc4)nccc3c2c1 [AJC-61, 1-(pyrimidin-5-yl)-9H-pyrido[3,4-b]indol-6-61] was tested, and the 2C agonist [1] was “inactive”, the IC50 [2] was over 10 µM and the 2A agonist (5-HT2a receptor) was “inactive”. For the same compound, the “Effect on amphetamine-induced increase in locomotor activity” value (mice [3]) was “blocked amphetamine-induced increase in locomotor activity; also recorded: blocked the amphetamine-induced increase in LMA”, the “Effect on PCP-induced increase in locomotor activity” value (mice [4]) was “blocked PCP-induced increase in locomotor activity; also recorded: blocked the PCP-induced increase in LAM” and the “Discrimination index (DI), PCP+AJC-61 versus PCP” value (male C57BL/6J mice) was “significant increase in DI”. For the same compound, the “Object exploration (inanimate object)” value (mice [5]) was “no significant change”, the “Social interaction: avoiding, PCP+AJC-61 versus PCP” value (mice [5]) was “significant decrease in avoiding” and the “Social interaction: following” value (mice [5]) was “no significant change”. The “Social interaction: sniffing, PCP+AJC-61 versus PCP” value (mice [5]) was “significant increase in sniffing”, the “Immobility time, PCP+AJC-61 versus PCP” value (mice [6]) was “significantly decreased the immobility time” and the “Immobility time, PCP+AJC-61 versus PCP” value (mice [6]; listed as AJC-16) was “Significant decrease in immobility time”. For the same compound, the “Number of marbles buried, PCP+AJC-61 versus PCP” value (mice [7]) was “significant decrease in the number of marbles buried”, the “Percent nestlet shredded, PCP+AJC-61 versus PCP” value (mice [8]) was “significant decrease in the percent nestlet shredded” and the “Discrimination index (DI), AJC-61 versus Vehicle” value (22-month old mice) was “significant increase in the DI”.

Clc1ccc2[nH]c3c(c2c1)CCNC3CCc1ccccc1 (stereo not drawn) [MJO-01-46] was tested, and the EC50 [1] was 5.37 nM, the “Emax (2C agonist)” value [1] was 98% and the EC50 (5-HT2a receptor) was 11.3 nM. The “Emax (2A agonist)” value (5-HT2a receptor) was 96%.

Oc1ccc2[nH]c3c(c2c1)CCNC3c1ccccc1O (stereo not drawn) [MJO-01-34] showed an EC50 [1] of 85.9 nM, an Emax [1] of 103% and an EC50 (5-HT2a receptor) of 106 nM. The Emax (5-HT2a receptor) was 27%.

Fc1ccc2[nH]c3c(c2c1)CCNC3c1cncnc1 (stereo not drawn) [MJO-01-31] showed an EC50 [1] of 10.1 nM, an Emax [1] of 101% and an EC50 (5-HT2a receptor) of 54.6 nM. It also gave an Emax (5-HT2a receptor) of 95%.
